From US5183821A, “Method for treating leukemias using N-(2-dimethylaminoethyl)-3-amino-1,8-naphthalimide for treating leukemias and solid tumors” (priority 1991, dated 1993)
“Also recorded” adds a separate entry of the source.

Legend:
[1] = system: M5076 ovarian carcinoma; assay: NCI screen, M5076 ovarian carcinoma, intraperitoneal (summary); type: in vivo, Mouse; details: for Antitumor activity in words: M5076
Text: The activity of the compound has been evaluated by experiments carried out under the auspices of the Division of Cancer Treatment, National Cancer Institute, employing techniques considered to be reliable indicators of chemotherapeutic utility in the treatment of forms of cancer in human patients. The details of the methodology employed in the reported experiments may be determined with reference to established NCI screening methods. In the experiments conducted by the NCI, evaluation of activity is made on the basis of appropriate parameters, such as median survival time (MST) or change in average tumor diameter (CATD)in ocular micrometer units (OMU).

[2] = system: L-1210 Lymphoid leukemia; assay: Experiment 9: L-1210 i.p., 10^5 cells, saline with Tween-80, male; type: in vivo, CD2F1 (CDF)
Text: Tumor: L-1210 Lymphoid leukemia
Inoculum Site: Intraperitoneal
Vehicle: Saline with Tween-80
Treatment schedule (relative to tumor inoculation day): daily on days 1-9
Day of evaluation (relative to tumor inoculation day): 30
Parameter: Mean survival time (MST) in days
NCI minimal activity criteria: Percent T/C≥125
Percent T/C: Ratio of test (T) evaluation to control (C) evaluation expressed as a percentage

Q: CN(C)CCN1C(=O)c2cccc3cc(N)cc(c23)C1=O [Example 9, 1H-Benz[de]isoquinoline-1,3(2H)-dione, 5-amino-2-[2-(dimethylamino)ethyl]] was tested. Which “Antitumor activity in words” value ([1]; listed as BIDA) did it give?
A: Its value is “Activity was seen”.

Q: What about the “Antitumor activity in words” value ([1]; listed as the compound) of the same compound?
A: The value was “activity substantially greater than the level considered to be of minimal interest; also recorded: exceeded the minimal level of activity for clinical interest”.

Q: What about the “Table II evaluation” value ([1]; mean survival time, 15 tests, full wrapped cell: Activity Substantially greater than the minimal) of the same compound?
A: The value was “Activity”.

Q: What about the “Mean survival time (MST)” value ([2]; 1.00 mg/kg i.p.) of the same compound?
A: Its value is 9.0 days.

Q: And the “Percent T/C” value ([2]; 1.00 mg/kg i.p.)?
A: The value was 104%.

Q: And the “Mean survival time (MST)” value ([2]; 2.00 mg/kg i.p.)?
A: The value was 8.7 days.

Q: What about the “Percent T/C” value ([2]; 2.00 mg/kg i.p.) of the same compound?
A: The value was 101%.

Q: And the “Mean survival time (MST)” value ([2]; 4.00 mg/kg i.p.)?
A: Its value is 9.3 days.

Q: And the “Percent T/C” value ([2]; 4.00 mg/kg i.p.)?
A: The value was 108%.

Q: And the “Mean survival time (MST)” value ([2]; 8.00 mg/kg i.p.)?
A: Its value is 11.7 days.

Q: And the “Percent T/C” value ([2]; 8.00 mg/kg i.p.)?
A: Its value is 136%.

Q: What about the “Mean survival time (MST)” value ([2]; 16.00 mg/kg i.p.) of the same compound?
A: Its value is 17.0 days.

Q: What about the “Percent T/C” value ([2]; 16.00 mg/kg i.p.) of the same compound?
A: The value was 197%.

Q: What about the “Mean survival time (MST)” value ([2]; 32.00 mg/kg i.p.) of the same compound?
A: The value was 7.7 days.

Q: And the “Percent T/C” value ([2]; 32.00 mg/kg i.p.)?
A: Its value is 89%.
